Measurements from PubChem BioAssay AID336 (DTP/NCI, 2004).
Several values for one entry are separate records, joined by “and”; a condition that tells them apart may be missing. Identical values can stand only once. Toxic doses and inconclusive results are not listed.

Test system: BDF1 mice, P388/VCR leukemia ip, median survival T/C
Test: NCI In Vivo Anticancer Drug Screen. Data for tumor model P388 Leukemia resistant to Vincristine; NSC 67574 (intraperitoneal) in B6D2F1 (BDF1) mice
Settings: endpoint: median survival time, higher = longer survival
Experimental: The antitumor activity of compounds was measured in mice bearing transplantable tumors. Survival or tumor size were measured and the results are expressed as the measurement made in the treated group (T) divided by the measurement made in the vehicle treated control group (C). The tumor model used in this assay is P388 Leukemia resistant to Vincristine; NSC 67574 (intraperitoneal) in B6D2F1 (BDF1) mice

CN=C(NC)c1ccc(NC(=O)Nc2ccc(NC(=O)Nc3ccc(C(=NC)NC)cc3)cc2)cc1
T/C (dose: 13.3 mg/kg/injection, schedule: Q01DX010 (ip), vehicle: saline): 150 % of control
T/C (dose: 20.0 mg/kg/injection, schedule: Q01DX010 (ip), vehicle: saline): 100 % of control
T/C (dose: 30.0 mg/kg/injection, schedule: Q01DX010 (ip), vehicle: saline): 504 % of control

CC/C(=C(/CC)c1ccc(O)cc1)c1ccc(O)cc1
T/C (dose: 12.5 mg/kg/injection, schedule: Q01DX010 (sc), vehicle: steriod suspending solution): 88 % of control and 111 % of control
T/C (dose: 25.0 mg/kg/injection, schedule: Q01DX010 (sc), vehicle: steriod suspending solution): 103 % of control
T/C (dose: 50.0 mg/kg/injection, schedule: Q01DX010 (sc), vehicle: steriod suspending solution): 100 % of control
T/C (dose: 100.0 mg/kg/injection, schedule: Q01DX010 (sc), vehicle: steriod suspending solution): 103 % of control

CC[C@]1(O)C[C@H]2CN(CCc3c([nH]c4ccccc34)[C@@](C(=O)OC)(c3cc4c(cc3OC)N(C=O)[C@H]3[C@@](O)(C(=O)OC)[C@H](OC(C)=O)[C@]5(CC)C=CCN6CC[C@]43[C@@H]65)C2)C1
T/C (dose: 0.03 mg/kg/injection, schedule: Q01DX010 (ip), vehicle: saline): 110 % of control
T/C (dose: 0.06 mg/kg/injection, schedule: Q01DX010 (ip), vehicle: saline): 113 % of control
T/C (dose: 0.12 mg/kg/injection, schedule: Q01DX010 (ip), vehicle: saline): 114 % of control
T/C (dose: 0.36 mg/kg/injection, schedule: Q04DX003 (ip), vehicle: saline): 106 % of control
T/C (dose: 0.6 mg/kg/injection, schedule: Q04DX003 (ip), vehicle: saline): 109 % of control
T/C (dose: 1.0 mg/kg/injection, schedule: Q04DX003 (ip), vehicle: saline): 113 % of control
T/C (dose: 1.67 mg/kg/injection, schedule: Q04DX003 (ip), vehicle: saline): 107 % of control
T/C (dose: 250.0 micrograms/kg/injection, schedule: Q04DX003 (ip), vehicle: saline): 111 % of control
T/C (dose: 324.0 micrograms/kg/injection, schedule: Q04DX003 (ip), vehicle: saline): 98 % of control and 103 % of control
T/C (dose: 360.0 micrograms/kg/injection, schedule: Q04DX003 (ip), vehicle: saline): 101 % of control and 104 % of control
T/C (dose: 389.0 micrograms/kg/injection, schedule: Q04DX003 (ip), vehicle: saline): 109 % of control
T/C (dose: 432.0 micrograms/kg/injection, schedule: Q04DX003 (ip), vehicle: saline): 106 % of control
T/C (dose: 500.0 micrograms/kg/injection, schedule: Q04DX003 (ip), vehicle: saline): 107 % of control
T/C (dose: 540.0 micrograms/kg/injection, schedule: Q04DX003 (ip), vehicle: saline): 99 % of control and 104 % of control
T/C (dose: 600.0 micrograms/kg/injection, schedule: Q04DX003 (ip), vehicle: saline): 99 % of control and 103 % of control
T/C (dose: 648.0 micrograms/kg/injection, schedule: Q04DX003 (ip), vehicle: saline): 118 % of control
T/C (dose: 720.0 micrograms/kg/injection, schedule: Q04DX003 (ip), vehicle: saline): 104 % of control
T/C (dose: 900.0 micrograms/kg/injection, schedule: Q04DX003 (ip), vehicle: saline): 104 % of control and 111 % of control
T/C (dose: 1000.0 micrograms/kg/injection, schedule: Q04DX003 (ip), vehicle: saline): 95 % of control and 104 % of control and 108 % of control
T/C (dose: 1080.0 micrograms/kg/injection, schedule: Q04DX003 (ip), vehicle: saline): 113 % of control
T/C (dose: 1200.0 micrograms/kg/injection, schedule: Q04DX003 (ip), vehicle: saline): 107 % of control
T/C (dose: 1500.0 micrograms/kg/injection, schedule: Q04DX003 (ip), vehicle: saline): 99 % of control and 101 % of control
T/C (dose: 1670.0 micrograms/kg/injection, schedule: Q04DX003 (ip), vehicle: saline): 100 % of control
T/C (dose: 1800.0 micrograms/kg/injection, schedule: Q04DX003 (ip), vehicle: saline): 115 % of control
T/C (dose: 2000.0 micrograms/kg/injection, schedule: Q04DX003 (ip), vehicle: saline): 108 % of control and 111 % of control

COc1cc2cc3c4cc(OC)c(OC)cc4cc[n+]3c(C)c2cc1OC (tested in a mixture with another compound)
T/C (dose: 46.7 mg/kg/injection, schedule: Q04DX003 (ip), vehicle: alkali diluted with saline): 106 % of control
T/C (dose: 77.8 mg/kg/injection, schedule: Q04DX003 (ip), vehicle: alkali diluted with saline): 110 % of control
T/C (dose: 130.0 mg/kg/injection, schedule: Q04DX003 (ip), vehicle: alkali diluted with saline): 115 % of control
T/C (dose: 216.0 mg/kg/injection, schedule: Q04DX003 (ip), vehicle: alkali diluted with saline): 124 % of control

Nc1ncnc2[nH]ncc12
T/C (dose: 1.5 mg/kg/injection, schedule: Q01DX010 (ip), vehicle: saline): 88 % of control
T/C (dose: 3.0 mg/kg/injection, schedule: Q01DX010 (ip), vehicle: saline): 88 % of control
T/C (dose: 6.0 mg/kg/injection, schedule: Q01DX010 (ip), vehicle: saline): 88 % of control and 103 % of control
T/C (dose: 12.0 mg/kg/injection, schedule: Q01DX010 (ip), vehicle: saline): 119 % of control
